Experimental data published in patent US11230538B2, “Herbicides” (SYNGENTA PARTICIPATIONS AG, priority 2016, dated 2022).

How the values were obtained:
Format in all cases: in vivo
[1] = system: Alopecurus myosuroides (ALOMY); experiment: B1 Pre-emergence herbicidal activity; set-up: key: 5=total damage to plant; 0=no damage to plant; conditions: pre-emergence application, rate 1000 g/ha, evaluated after 13 days
Outline: (§1)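 Damage was rated visually on a 0–5 scale (0 no damage, 5 total damage) 13 days after treatment. Soil-sown seeds had been sprayed one day after sowing with an aqueous acetone/water (50:50) solution containing 0.5% Tween 20, then kept in a glasshouse at 24/16 °C, 14 h light, 65% humidity.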

Avena fatua (AVEFA) [2] = experiment: B1 Pre-emergence herbicidal activity; set-up: key: 5=total damage to plant; 0=no damage to plant; conditions: pre-emergence application, rate 1000 g/ha, evaluated after 13 days
Outline: as §1

[3] = system: Triticum aestivium (TRZAW); experiment: B1 Pre-emergence herbicidal activity; set-up: key: 5=total damage to plant; 0=no damage to plant; conditions: pre-emergence application, rate 1000 g/ha, evaluated after 13 days
Outline: as §1

[4] = system: Echinochloa crus-galli (ECHCG); experiment: B1 Pre-emergence herbicidal activity; conditions: pre-emergence application, rate 1000 g/ha, evaluated after 13 days
Outline: as §1

Lolium perenne (LOLPE) [5] = experiment: B1 Pre-emergence herbicidal activity; set-up: key to Pre-emergence herbicidal activity, LOLPE (damage score 0-5): 5=total damage to plant; 0=no damage to plant; conditions: pre-emergence application, rate 1000 g/ha, evaluated after 13 days
Outline: as §1

Setaria fabenr (SETFA) = experiment: B1 Pre-emergence herbicidal activity; set-up: key to Pre-emergence herbicidal activity, SETFA (damage score 0-5): 5=total damage to plant; 0=no damage to plant; conditions: pre-emergence application, rate 1000 g/ha, evaluated after 13 days
Outline: as §1

Avena fatua (AVEFA) [6] = experiment: B2 Post-emergence herbicidal activity; conditions: post-emergence application, rate 1000 g/ha, evaluated after 13 days
Outline: (§2)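 Visual damage score (0 = none, 5 = total) taken 13 days after treatment. Seedlings had been cultivated 8 days in pots of standard soil before being sprayed with an aqueous solution of compound in acetone/water (50:50) containing 0.5% Tween 20.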

[7] = system: Echinochloa crus-galli (ECHCG); experiment: B2 Post-emergence herbicidal activity; set-up: key to Post-emergence herbicidal activity, ECHCG (damage score 0-5): 5=total damage to plant; 0=no damage to plant; conditions: post-emergence application, rate 1000 g/ha, evaluated after 13 days
Outline: as §2

Lolium perenne (LOLPE) [8] = experiment: B2 Post-emergence herbicidal activity; conditions: post-emergence application, rate 1000 g/ha, evaluated after 13 days
Outline: as §2

[9] = system: Alopecurus myosuroides (ALOMY); experiment: B2 Post-emergence herbicidal activity; set-up: key: 5=total damage to plant; 0=no damage to plant; conditions: post-emergence application, rate 1000 g/ha, evaluated after 13 days
Outline: as §2

Setaria fabenri (SETFA) = experiment: B2 Post-emergence herbicidal activity; set-up: key: 5=total damage to plant; 0=no damage to plant; conditions: post-emergence application, rate 1000 g/ha, evaluated after 13 days
Outline: as §2

[10] = system: Triticum aestivium (TRZAW); experiment: B2 Post-emergence herbicidal activity; set-up: key: 5=total damage to plant; 0=no damage to plant; conditions: post-emergence application, rate 1000 g/ha, evaluated after 13 days
Outline: as §2

Row | SMILES | Pre-emergence herbicidal activity, ALOMY (damage score 0-5) [1] | Pre-emergence herbicidal activity, AVEFA (damage score 0-5) (Avena fatua (AVEFA) [2]) | Pre-emergence herbicidal activity, TRAZW (damage score 0-5) [3] | Pre-emergence herbicidal activity, ECHCG (damage score 0-5) [4] | Pre-emergence herbicidal activity, LOLPE (damage score 0-5) (Lolium perenne (LOLPE) [5]) | Pre-emergence herbicidal activity, SETFA (damage score 0-5) (Setaria fabenr (SETFA)) | Post-emergence herbicidal activity, AVEFA (damage score 0-5) (Avena fatua (AVEFA) [6]) | Post-emergence herbicidal activity, ECHCG (damage score 0-5) [7] | Post-emergence herbicidal activity, LOLPE (damage score 0-5) (Lolium perenne (LOLPE) [8]) | Post-emergence herbicidal activity, ALOMY (damage score 0-5) [9] | Post-emergence herbicidal activity, SETFA (damage score 0-5) (Setaria fabenri (SETFA)) | Post-emergence herbicidal activity, TRAZW (damage score 0-5) [10]
1 | C#CCN(C(=O)C(C)C)c1ccc(-c2cncc(F)c2)nc1C(F)(F)F [Compound C61] | 0 | 1 | 0 | 3 | 0 | 5 | 2 | 4 | 2 | 1 | 4 | 0
2 | CCC(=O)N(CCC(F)F)c1ccc(-c2cncc(F)c2)nc1C(F)(F)F [Compound C62] | 0 | 2 | 0 | 3 | 1 | 4 | 4 | 5 | 2 | 1 | 5 | 1
3 | C=CCN(C(=O)COC)c1ccc(-c2cncc(F)c2)nc1C(F)(F)F [Compound C63] | 0 | 0 | 0 | 2 | 1 | 4 | 2 | 4 | 2 | 1 | 4 | 0
4 | O=C(Nc1ccc(-c2cncnc2)nc1C(F)(F)F)C(Cl)Cl [Compound C65] | 0 | 3 | 0 | 4 | 2 | 3 | 4 | 5 | 3 | 0 | 5 | 0
5 | O=C1CCC(=O)N1c1ccc(-c2cncc(F)c2)nc1C(F)(F)F [Compound C67, 1-[6-(5-fluoro-3-pyridyl)-2-(trifluoromethyl)-3-pyridyl]pyrrolidine-2,5-dione] | 0 | 0 | 0 | 1 | 0 | 2 | 2 | 4 | 2 | 0 | 4 | 0
6 | CCC(=O)N(Cc1ccncc1)c1ccc(-c2cncc(F)c2)nc1C(F)(F)F [Compound C70] | 0 | 1 | 0 | 2 | 1 | 2 | 2 | 2 | 1 | 0 | 3 | 0
7 | COCC(=O)N(CC1CC1)c1ccc(-c2cncc(F)c2)nc1C(F)(F)F [Compound C80] | 0 | 1 | 0 | 2 | 0 | 3 | 2 | 3 | 1 | 1 | 5 | 1
8 | COCCN(C(=O)C(C)C)c1ccc(-c2cncc(F)c2)nc1C(F)(F)F [Compound C85] | 0 | 0 | 0 | 2 | 0 | 2 | 2 | 4 | 1 | 0 | 4 | 1
9 | CSCCN(C(=O)C(C)C)c1ccc(-c2cncc(F)c2)nc1C(F)(F)F [Compound C88] | 0 | 0 | 0 | 1 | 0 | 2 | 1 | 1 | 1 | 1 | 2 | 1
10 | CC(C)C(=O)N(c1ccc(-c2cncc(F)c2)nc1C(F)(F)F)C(C)C [Compound C90] | 0 | 0 | 0 | 2 | 0 | 2 | 2 | 4 | 1 | 0 | 4 | 1
11 | C#CCN(C(=O)CC)c1ccc(-c2cncc(F)c2)nc1C(F)(F)F [Compound C94] | 0 | 1 | 0 | 2 | 1 | 5 | 2 | 4 | 2 | 0 | 5 | 0
12 | CCC(=O)N(CCCN(CC)CC)c1ccc(-c2cncc(F)c2)nc1C(F)(F)F [Compound C95] | 0 | 1 | 0 | 3 | 1 | 4 | 2 | 5 | 2 | 1 | 5 | 1
